According to PubChem BioAssay AID2060337 (Molecular Pharmacology Branch, DTP, NCI, 2025):
Where “and” joins values, the source holds several entries; their conditions need not be identical. Identical values can stand only once. Blank lines part the entries; values can stand above or below the compound they belong to.

Test system: 832693-133-R-J1-PDC multi-cell spheroids, viability
Experiment: Anticancer human tumor 832693-133-R-J1-PDC patient-derived head and neck squamous carcinoma cell line growth inhibition [IpAb]
Settings: for viability, T/C: stronger effect = lower value
Outline: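 Spheroids of 60% malignant cells, 25% HUVEC and 15% MSC were exposed to targeted agents combined with ipatasertib or abemaciclib. Doses started at or near clinical Cmax (10 microM when unknown) and fell in half-log steps.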
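Note: spheroids exposed to the drugs for one week before the viability readout.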
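Throughout, for viability, T/C: 100% = DMSO vehicle control wells.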

IC50 (compound alone, run of 05/18/2021): > 10000 nM and 6660 nM and 1870 nM
Compound: CC(C)NCC(C(=O)N1CCN(c2ncnc3c2C(C)CC3O)CC1)c1ccc(Cl)cc1 (stereo not given)
viability, T/C (compound 0.1 µM): 89.5% [middle of 13 runs] | viability, T/C (compound 0.316 µM): 78.2% [middle of 12 runs] | viability, T/C (compound 1 µM): 58% [middle of 13 runs] | viability, T/C (compound 3.16 µM): 55.3% [middle of 13 runs] | viability, T/C (compound 10 µM): 58.4% [middle of 13 runs]

IC50 (curve of compound): 1070 nM and 1650 nM
Compound: Cn1nccc1Nc1nccc(-c2ccn(C(CO)c3ccc(Cl)c(F)c3)c(=O)c2)n1 (stereo not given)
viability, T/C (compound 0.0316 µM): 97.1% and 93.1% | viability, T/C (compound 0.1 µM): 77% and 82.1% | viability, T/C (compound 0.316 µM): 64.1% and 70.2% | viability, T/C (compound 1 µM): 57.1% and 65.9% | viability, T/C (compound 3.16 µM): 34.3% and 33.6% | viability, T/C (compound 10 µM): 13% and 24.2%

IC50 (curve of compound): 6160 nM and 6680 nM
Compound: CCCS(=O)(=O)Nc1ccc(F)c(C(=O)c2c[nH]c3ncc(-c4ccc(Cl)cc4)cc23)c1F
viability, T/C (compound 0.0316 µM): 102% and 106% | viability, T/C (compound 0.1 µM): 107% and 108% | viability, T/C (compound 0.316 µM): 99.7% and 108% | viability, T/C (compound 1 µM): 95.7% and 90.7% | viability, T/C (compound 3.16 µM): 67.7% and 69.2% | viability, T/C (compound 10 µM): 37% and 39.9%

Compound: Cn1nccc1Nc1nccc(-c2ccn(C(CO)c3ccc(Cl)c(F)c3)c(=O)c2)n1 (stereo not given) + CC(C)NCC(C(=O)N1CCN(c2ncnc3c2C(C)CC3O)CC1)c1ccc(Cl)cc1
IC50 (curve of first compound, second compound 0.1 µM): 383 nM | IC50 (curve of first compound, second compound 0.316 µM): 87.4 nM | IC50 (curve of first compound, second compound 1 µM): 37.1 nM | IC50 (curve of first compound, second compound 3.16 µM): 46.8 nM | IC50 (curve of first compound, second compound 10 µM): 326 nM | viability, T/C (second compound 0.1 µM, first compound 0.0316 µM): 90.9% | viability, T/C (second compound 0.1 µM, first compound 0.1 µM): 64.3% | viability, T/C (second compound 0.1 µM, first compound 0.316 µM): 55.9% | viability, T/C (second compound 0.1 µM, first compound 1 µM): 41.2% | viability, T/C (second compound 0.1 µM, first compound 3.16 µM): 23.1% | viability, T/C (second compound 0.1 µM, first compound 10 µM): 21.5% | viability, T/C (second compound 0.316 µM, first compound 0.0316 µM): 60.1% | viability, T/C (second compound 0.316 µM, first compound 0.1 µM): 50% | viability, T/C (second compound 0.316 µM, first compound 0.316 µM): 35.2% | viability, T/C (second compound 0.316 µM, first compound 1 µM): 27.8% | viability, T/C (second compound 0.316 µM, first compound 3.16 µM): 19.7% | viability, T/C (second compound 0.316 µM, first compound 10 µM): 11.2% | viability, T/C (second compound 1 µM, first compound 0.0316 µM): 50.7% | viability, T/C (second compound 1 µM, first compound 0.1 µM): 43.2% | viability, T/C (second compound 1 µM, first compound 0.316 µM): 26.6% | viability, T/C (second compound 1 µM, first compound 1 µM): 20.9% | viability, T/C (second compound 1 µM, first compound 3.16 µM): 14% | viability, T/C (second compound 1 µM, first compound 10 µM): 7.18% | viability, T/C (second compound 3.16 µM, first compound 0.0316 µM): 51.5% | viability, T/C (second compound 3.16 µM, first compound 0.1 µM): 47.3% | viability, T/C (second compound 3.16 µM, first compound 0.316 µM): 30.6% | viability, T/C (second compound 3.16 µM, first compound 1 µM): 19.9% | viability, T/C (second compound 3.16 µM, first compound 3.16 µM): 12.6% | viability, T/C (second compound 3.16 µM, first compound 10 µM): 8.87% | viability, T/C (second compound 10 µM, first compound 0.0316 µM): 56.3% | viability, T/C (second compound 10 µM, first compound 0.1 µM): 59.6% | viability, T/C (second compound 10 µM, first compound 0.316 µM): 50.9% | viability, T/C (second compound 10 µM, first compound 1 µM): 28.7% | viability, T/C (second compound 10 µM, first compound 3.16 µM): 17.9% | viability, T/C (second compound 10 µM, first compound 10 µM): 10.5%
